One test concerns the target T1, rice GSNOR (Oryza sativa, UniProt Q0DWH1).
T1 construct: gene Os02g0815500
Description: surface plasmon resonance (OpenSPR). The class given is binding. For orientation: SPR reads the build-up and loss of mass on a sensor chip optically.

For a further test, the target named is T2, GSNOR (M. oryzae) (Pyricularia oryzae, UniProt G4N4N6).
T2 construct: gene MGG_06011
Description: biochemical.

T1 sequence (Q0DWH1 whole entry): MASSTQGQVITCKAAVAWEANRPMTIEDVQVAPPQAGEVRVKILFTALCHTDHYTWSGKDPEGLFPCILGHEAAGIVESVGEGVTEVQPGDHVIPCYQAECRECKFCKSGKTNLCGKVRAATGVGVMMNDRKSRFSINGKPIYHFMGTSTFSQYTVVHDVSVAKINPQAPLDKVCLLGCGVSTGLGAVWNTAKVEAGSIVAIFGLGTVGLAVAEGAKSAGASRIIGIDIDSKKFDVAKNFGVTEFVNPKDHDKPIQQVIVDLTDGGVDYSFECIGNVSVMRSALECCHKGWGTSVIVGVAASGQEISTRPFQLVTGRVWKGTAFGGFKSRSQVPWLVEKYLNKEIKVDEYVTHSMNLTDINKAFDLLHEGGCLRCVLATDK
T2 sequence (G4N4N6 1-381): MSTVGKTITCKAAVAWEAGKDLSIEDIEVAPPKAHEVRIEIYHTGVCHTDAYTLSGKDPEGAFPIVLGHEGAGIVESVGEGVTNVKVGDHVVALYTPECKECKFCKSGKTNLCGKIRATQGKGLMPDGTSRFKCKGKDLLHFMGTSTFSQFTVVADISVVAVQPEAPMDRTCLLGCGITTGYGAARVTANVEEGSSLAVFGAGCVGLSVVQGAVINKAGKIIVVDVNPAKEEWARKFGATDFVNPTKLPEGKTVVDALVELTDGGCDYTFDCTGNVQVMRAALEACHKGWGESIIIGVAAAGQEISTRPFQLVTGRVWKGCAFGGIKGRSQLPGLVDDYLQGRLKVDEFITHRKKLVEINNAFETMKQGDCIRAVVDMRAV

Usually Kd stands for the free concentration of one partner at which half of the binding sites on the other are occupied at equilibrium, for simple one-to-one binding. High values mean a looser complex, low ones a tighter complex. With `Cc1cc(C(N)=O)ccc1-n1c(CCC(=O)O)ccc1-c1ccc(-n2ccnc2)cc1` [N6022], the Kd at rice GSNOR is 288 µM; at GSNOR (M. oryzae), 55.8 µM.

The values above are taken from publication PMC11234416 (Advanced Science, 2024).
